# Test results taken from US20140171404A1, “Autotaxin inhibitors” (NOVARTIS AG, priority 2012, published 2014).
# Target: T1, Recombinant human ATX (Homo sapiens, UniProt Q13822)
# T1 construct: made in house; host or cells: human embryonic kidney (HEK) cells
# Assay: Assessing ATX inhibition: released choline, Amplex Red fluorescence
# Type: biochemical
# Conditions: ATX 10 nM, LPC 18:1 10 μM, pre-incubated with ATX at 37° C. for 20 minutes; Table 1, exemplified compounds; read-out: IC50
# Procedure: LPC (oleoyl (18:1)) was purchased from Avanti Polar Lipids (Alabaster; AL) and solubilized in methanol to 20 mM. Amplex Red was obtained from Invitrogen Life Technologies (Paisley, UK) and dissolved in DMSO to 10 mM. Choline oxidase and horseradish peroxidase (HRP) were obtained from Sigma Aldrich (Dorset, UK) and dissolved in HBSS to 20 U/ml and 200 U/ml respectively. All reagents were stored at −20° C. in single use aliquots. All experimental measurements were performed in assay buffer made up immediately prior to use (HBSS, 0.01% BSA essentially fatty acid free).
# Recombinant human ATX was prepared at Novartis (Basel, CH) in a human embryonic kidney (HEK) cell preparation, and stored in single use aliquots of […] (26 μM) stocks stored at −80° C.
# All experimental measurements were performed in black 384 well polystyrene (low volume, round bottom, Corning (3676)) plates. PerkinElmer EnVision (Fluorescence Intensity/Absorbance Monochromator) or Tecan Infinite 200 PRO series plate reader was used to detect change in fluorescent intensity.
# ATX activity was determined by measurement of released choline in reactions containing ATX (10 nM), choline oxidase (0.1 U/ml), HRP (100 U/ml), amplex red (50 μM) and LPC 18:1 (10 μM). Compounds of the invention were prepared as 10 point serial dilutions from 1 μM in duplicate and pre-incubated with ATX at 37° C. for 20 minutes prior to the addition of remaining reagents. The liberated choline was measured from changes in fluorescence intensity (λex 530 nm, λem 590 nm) of the product resurofin at 37° C. every 2 minutes over a 40-minute period. ATX activity was measured as a slope of the linear portion of the progress curve, typically between 14 to 24 minutes.
# Slope data was exported to Graphpad prism (Graphpad software, San Diego, Calif.) where data was fitted to equation 1.
# Y=Bottom+(Top−Bottom)/(1+10̂((Log IC50−X)*HillSlope)) Equation 1: […]
row,SMILES,IC50 [nM]
1,"O=C(CCCc1c[nH]c(=O)s1)NC1CCN(C(=O)OCc2cc(Cl)cc(Cl)c2)CC1 [Example 73, 3,5-Dichlorobenzyl 4-(4-(2-oxo-2,3-dihydrothiazol-5-yl)butanamido)piperidine-1-carboxylate]",2
2,"O=C(CCCc1nnn[nH]1)NC1CCN(C(=O)OCc2cc(Cl)cc(Cl)c2)CC1 [Example 74, 3,5-Dichlorobenzyl 4-(4-(1H-tetrazol-5-yl)butanamido)piperidine-1-carboxylate]",21
3,N#Cc1cc(Cl)cc(COC(=O)N2CCC(NCCCCc3c[nH]nn3)CC2)c1 [Example 75],29

# Same assay, conditions: same assay; compounds outside the scope of the invention; read-out: IC50
row,SMILES,IC50 [nM]
1,O=C(NCC1CCN(C(=O)OCc2cc(Cl)cc(Cl)c2)CC1)c1cc(O)no1 [reference compound],> 1000
2,O=C(/C=C/c1c[nH]cn1)N1CCN(C2CCN(C(=O)CCc3ccc(C(F)(F)F)cc3)CC2)CC1 [reference compound],> 5500
3,O=C(CCCc1c[nH]nn1)NC1CCN(C(=O)OCc2ccccc2)CC1 [reference compound],1390
